Article PMC12767106, “In Situ Assembly of Transformable Monopeptide on Activated Neutrophils Attenuates NETs‐Induced Hepatocellular Carcinoma Metastasis by Disrupting NE Nuclear Translocation” (Advanced Science, 2025)

Columns and labels:
[1] = target: T1, NE of activated neutrophils (Mus musculus, UniProt Q3UP87); experiment: Quantitative analysis of NE activity (NETosis Assay Kit); format: cell-based; conditions: activated neutrophils (PMA), 4 h, NPs 0-200 µM; FTP-NPs result stated at 50 µM
T1 construct: endogenous in cells
T1 sequence (Q3UP87 27-265): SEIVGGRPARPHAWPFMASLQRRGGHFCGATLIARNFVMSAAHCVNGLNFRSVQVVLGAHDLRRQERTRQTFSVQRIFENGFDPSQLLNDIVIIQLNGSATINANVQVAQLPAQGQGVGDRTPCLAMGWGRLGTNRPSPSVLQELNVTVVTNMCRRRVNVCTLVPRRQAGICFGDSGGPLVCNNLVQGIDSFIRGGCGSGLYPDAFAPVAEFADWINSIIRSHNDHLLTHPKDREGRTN
Description: (§1) Submitted to Advanced Science
Neutrophil Elastase Activity Assay
To evaluate the distribution of active NE on the surface and inside of neutrophils, we used a kit (AkrivisBio’s Neutrophil Elastase Activity Assay, MA-0156), seeded neutrophils in confocal microscopy dishes, and then treated them with NFTP-NPs (50 µM, medium: DMSO = 99:1, v/v), FTP-NPs (50 µM, medium: DMSO = 99:1, v/v), PMA+NFTP-NPs (50 µM, medium: DMSO = 99:1, v/v), and PMA+FTP-NPs (50 µM, medium: DMSO = 99:1, v/v) at 37°C. Because the Neutrophil elastase in the kit cleaves a concrete fluorogenic substrate which releases AFC, providing intense fluorescence, 50 μl of MeOSucc-AAPV-AFC mix (Assay Buffer: MeOSucc-AAPV-AFC = 48:2) was added at 4 h, and after incubation for 1 h, the samples were examined by CLSM (LSM980, Zeiss, Germany).
Quantitative analysis of NE activity […]
DMSO = 99:1, v/v) for 4 h to obtain the solution.35,36 Quantitative analysis was carried out by a NETosis Assay Kit (Cayman Chemical, USA).
Quantitative induction analysis of NETs in vitro […]
According to the manufacturer's instructions, MPO -DNA levels in cultured supernatant were analyzed by an ELISA kit (MEIMIAN, China).38 Briefly, samples were added to each well and incubated with anti -MPO and anti-DNA antibodies for 2 h at room temperature. […] The OD value w as then measured by a microplate

[2] = test system: Hepa1-6/luc liver and lung metastasis; experiment: Liver and lung metastasis model; format: in vivo, mouse; conditions: Hepa1-6/luc cells via spleen or tail vein, 300 µM in 200 µL i.v. every two days, 16 days, n = 5
From the text: as §1
effector T cells (CD45+CD3+CD8+)/(CD45+CD3+CD4+), tumor cells were stained with anti-CD45-FITC
(Biolegend), anti-CD3ε-PerCP-Cy5.5 (Biolegend), anti-CD4-APC (Biolegend), and anti-CD8a-PE (Biolegend)
antibodies according to the standard protocol. For evaluation of NK cells (CD45+CD3-NK1.1+), tumor cells
were stained with anti-CD45-FITC (Biolegend), anti-CD3-PE (Biolegend) and anti-CD49b-APC (Biolegend)
antibodies and examined using flow cytometry. For MDSCs (CD45+CD11b+Gr-1+) analysis, tumor cells were
stained with anti-CD45-FITC, anti-CD11b-BrilliantViolet-510 (Biolegend), anti -F4/80-PE (Biolegend), and
anti-Gr-1-APC (Biolegend) antibodies for flow cytometry examination (BD FACS Canto SORP, USA). The
software FlowJo V10.6.2 was used for data analysis. To further explore the immunomodulatory effects of FTP-
NPs. Tumor tissues were harvested for immune profiling. Plasma cytokine levels, including IL-6, IL-10, and
TNF-α, were measured using commercially available ELISA kits to assess the immune activation induced by
Experimental liver and lung metastasis model
Six-week-old male C57BL/6J mice (20–25 g) were used to establish liver and lung metastasis models. Hepa1-
6/luc cells (1 × 10^6 cells) were injected into the spleen or tail vein of the mice to induce liver or lung
metastasis, respectively. For the liver metastasis model, Hepa1-6/luc cells were injected into the spleen, allowing
tumor cells to circulate and establish metastases in the liver. For the lung metastasis model, Hepa1-6/luc cells
were injected via the tail vein, leading to the formation of metastases in the lungs. Following cell implantation, […]
euthanized, and metastases were assessed macroscopically. […]
injecting D-Luciferin (150 mg/kg) intraperitoneally, and tumor burden was quantified using the IVIS Spectrum […]
conducted, and metastatic lesions were assessed under an inverted microscope (Axiovert 200, Zeiss, Germany). […]
300 μM per injection) for mice. […] (b) Fluorescence quantized chart […]
experiments. Statistical significance was calculated by one-way ANOVA, *p < 0.050.(c, d) Photographs of lung […]

Substance	activity of NE [1]	liver and lung metastasis (bioluminescent signals, number of metastatic foci) [2]
PpIX-GFFVLK-EAIPMSIPPEVK [FTP-NPs]	almost disappeared	weakened considerably and significantly lower
PpIX-GGGAAK-EAIPMSIPPEVK [NFTP-NPs, nanoparticles of the non-fibrillar transformable control peptide NFTP]	no significant effect	obvious metastases
